Experimental data taken from patent US10294202B2, “Pyrrolidinones as herbicides” (FMC Corporation, priority 2013, dated 2019).

What was measured:
[1] = tested on: rice; experiment: Test C flooded paddy test; assay type: in vivo, Oryza sativa; details: Flood
Outline: (§1)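 Ratings reflect visual comparison with controls on a 0–100 scale, where 100 is complete control. Compound is dosed into standing paddy water 3 cm deep over 2-leaf-stage plants, kept in the greenhouse 13 to 15 days.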

[2] = tested on: morningglory; experiment: Test A pre-/postemergence herbicide test; assay type: in vivo, Ipomoea spp.
Outline: (§2)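 Visual injury ratings, 0 = no effect, 100 = complete control, taken ~10 days after treatment against untreated greenhouse controls. Preemergence: directed soil spray onto seeded loam/sand pots. Postemergence: spray onto plants at one- to two-leaf stage, 2–10 cm tall.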

[3] = tested on: sedge, umbrella; experiment: Test C flooded paddy test; assay type: in vivo, Cyperus difformis; details: Flood
From the text: (§3) Plant species in the flooded paddy test consisted of rice (Oryza sativa), sedge, umbrella (small-flower umbrella sedge, Cyperus difformis), ducksalad (Heteranthera limosa), and barnyardgrass (Echinochloa crus-galli) grown to the 2-leaf stage for testing. At time of treatment, test pots were flooded to 3 cm above the soil surface, treated by application of test compounds directly to the paddy water, and then maintained at that water depth for the duration of the test. Treated plants and controls were maintained in a greenhouse for 13 to 15 days, after which time all species were compared to controls and visually evaluated. Plant response ratings, summarized in Table C, are based on a scale of 0 to 100 where 0 is no effect and 100 is complete control. A dash (-) response means no test result.

[4] = tested on: giant foxtail; experiment: Test A pre-/postemergence herbicide test; assay type: in vivo, Setaria faberii
Outline: as §2

[5] = tested on: wheat; experiment: Test A pre-/postemergence herbicide test; assay type: in vivo, Triticum aestivum
Outline: as §2

[6] = tested on: velvetleaf; experiment: Test A pre-/postemergence herbicide test; assay type: in vivo, Abutilon theophrasti
Outline: as §2

[7] = tested on: ducksalad; experiment: Test C flooded paddy test; assay type: in vivo, Heteranthera limosa; details: Flood
Outline: as §1

[8] = tested on: corn; experiment: Test A pre-/postemergence herbicide test; assay type: in vivo, Zea mays
Outline: as §2

[9] = tested on: barnyardgrass; experiment: Test C flooded paddy test; assay type: in vivo, Echinochloa crus-galli; details: Flood
From the text: as §3

[10] = tested on: barnyardgrass; experiment: Test A pre-/postemergence herbicide test; assay type: in vivo, Echinochloa crus-galli
Outline: as §2

[11] = tested on: crabgrass, large; experiment: Test A pre-/postemergence herbicide test; assay type: in vivo, Digitaria sanguinalis
Outline: as §2

[12] = tested on: pigweed; experiment: Test A pre-/postemergence herbicide test; assay type: in vivo, Amaranthus retroflexus
Outline: as §2

[13] = 31 g ai/ha, scale of 0 to 100 where 0 is no effect and 100 is complete control, 13 to 15 days
[14] = 62 g ai/ha, scale of 0 to 100 where 0 is no effect and 100 is complete control, 13 to 15 days
[15] = 125 g ai/ha, scale of 0 to 100 where 0 is no effect and 100 is complete control, 13 to 15 days
[16] = Postemergence, 125 g ai/ha, 0 to 100 scale, 0 no effect, 100 complete control
[17] = Postemergence, 500 g ai/ha, 0 to 100 scale (0 no effect, 100 complete control)
[18] = Preemergence, 125 g ai/ha, visual rating on 0 to 100 scale (0 no effect, 100 complete control)
[19] = preemergence, 500 g ai/ha, 0 to 100 scale
[20] = preemergence, 500 g ai/ha, 0 to 100 scale (0 no effect, 100 complete control)
[21] = Postemergence, 1000 g ai/ha, 0 to 100 scale (0 no effect, 100 complete control)
[22] = Preemergence, 1000 g ai/ha, visual rating on 0 to 100 scale (0 no effect, 100 complete control), approx. 10 days

CC1NC(=O)C(C(=O)Nc2ccccc2F)C1c1ccc(F)c(F)c1 (mixture of isomers) [Compound 7]
30: Plant response rating, Crabgrass, Large [11, 16]
90: Plant response rating, Foxtail, Giant [4, 19] | Plant response rating, Crabgrass, Large [11, 19]
70: Foxtail, Giant plant response rating [4, 18] | Plant response rating, Barnyardgrass [10, 17]
50: Plant response rating, Foxtail, Giant [4, 17]
20: Plant response rating, Barnyardgrass [10, 16] | Barnyardgrass plant response rating [10, 18]
0: Plant response rating, Rice [1, 13] | Plant response rating, Rice [1, 14] | Plant response rating, Rice [1, 15] | Plant response rating, Rice ([1]; 250 g ai/ha, scale 0 to 100) | Plant response rating, Morningglory [2, 16] | Plant response rating, Morningglory [2, 17] | Morningglory plant response rating [2, 18] | Plant response rating, Morningglory [2, 19] | Plant response rating, Sedge, Umbrella [3, 13] | Plant response rating, Sedge, Umbrella [3, 14] | Plant response rating, Sedge, Umbrella [3, 15] | Plant response rating, Sedge, Umbrella ([3]; 250 g ai/ha, scale 0 to 100) | Plant response rating, Foxtail, Giant [4, 16] | Plant response rating, Wheat [5, 16] | Plant response rating, Wheat [5, 17] | Wheat plant response rating [5, 18] | Plant response rating, Wheat [5, 19] | Plant response rating, Velvetleaf [6, 16] | Plant response rating, Velvetleaf [6, 17] | Velvetleaf plant response rating [6, 18] | Plant response rating, Velvetleaf [6, 19] | Plant response rating, Ducksalad [7, 13] | Plant response rating, Ducksalad [7, 14] | Plant response rating, Ducksalad [7, 15] | Plant response rating, Ducksalad ([7]; 250 g ai/ha, scale 0 to 100) | Plant response rating, Corn [8, 16] | Plant response rating, Corn [8, 17] | Corn plant response rating [8, 18] | Plant response rating, Corn [8, 19] | Plant response rating, Barnyardgrass [9, 13] | Plant response rating, Barnyardgrass [9, 14] | Plant response rating, Barnyardgrass [9, 15] | Plant response rating, Barnyardgrass ([9]; 250 g ai/ha, scale 0 to 100) | Plant response rating, Pigweed [12, 16] | Plant response rating, Pigweed [12, 17] | Pigweed plant response rating [12, 18] | Plant response rating, Pigweed [12, 19]
80: Plant response rating, Barnyardgrass [10, 20] | Plant response rating, Crabgrass, Large [11, 17] | Crabgrass, Large plant response rating [11, 18]

CC1NC(=O)C(C(=O)Nc2ccccc2F)C1c1ccc(F)c(F)c1 (mixture of isomers) [Compound 8]
50: Plant response rating, Foxtail, Giant [4, 17]
80: Crabgrass, Large plant response rating [11, 18]
90: Plant response rating, Foxtail, Giant [4, 19] | Plant response rating, Crabgrass, Large [11, 19]
0: Plant response rating, Rice [1, 13] | Plant response rating, Rice [1, 14] | Plant response rating, Rice [1, 15] | Plant response rating, Rice ([1]; 250 g ai/ha, scale 0 to 100) | Plant response rating, Morningglory [2, 16] | Plant response rating, Morningglory [2, 17] | Morningglory plant response rating [2, 18] | Plant response rating, Morningglory [2, 19] | Plant response rating, Sedge, Umbrella [3, 13] | Plant response rating, Sedge, Umbrella [3, 14] | Plant response rating, Sedge, Umbrella [3, 15] | Plant response rating, Sedge, Umbrella ([3]; 250 g ai/ha, scale 0 to 100) | Plant response rating, Foxtail, Giant [4, 16] | Plant response rating, Wheat [5, 16] | Plant response rating, Wheat [5, 17] | Wheat plant response rating [5, 18] | Plant response rating, Wheat [5, 19] | Plant response rating, Velvetleaf [6, 16] | Plant response rating, Velvetleaf [6, 17] | Velvetleaf plant response rating [6, 18] | Plant response rating, Velvetleaf [6, 19] | Plant response rating, Ducksalad [7, 13] | Plant response rating, Ducksalad [7, 14] | Plant response rating, Ducksalad [7, 15] | Plant response rating, Ducksalad ([7]; 250 g ai/ha, scale 0 to 100) | Plant response rating, Corn [8, 16] | Plant response rating, Corn [8, 17] | Corn plant response rating [8, 18] | Plant response rating, Barnyardgrass [9, 13] | Plant response rating, Barnyardgrass [9, 14] | Plant response rating, Barnyardgrass [9, 15] | Plant response rating, Barnyardgrass ([9]; 250 g ai/ha, scale 0 to 100) | Plant response rating, Pigweed [12, 16] | Plant response rating, Pigweed [12, 17] | Pigweed plant response rating [12, 18] | Plant response rating, Pigweed [12, 19]
60: Foxtail, Giant plant response rating [4, 18] | Plant response rating, Barnyardgrass [10, 17] | Plant response rating, Barnyardgrass [10, 20] | Plant response rating, Crabgrass, Large [11, 16]
20: Plant response rating, Corn [8, 19] | Plant response rating, Barnyardgrass [10, 16] | Barnyardgrass plant response rating [10, 18]
70: Plant response rating, Crabgrass, Large [11, 17]

CC1NC(=O)C(C(=O)Nc2ccccc2C(F)(F)F)C1c1ccc(F)c(F)c1 (mixture of isomers) [Compound 10]
0: Plant response rating, Rice [1, 13] | Plant response rating, Rice [1, 14] | Plant response rating, Rice [1, 15] | Plant response rating, Rice ([1]; 250 g ai/ha, scale 0 to 100) | Plant response rating, Morningglory [2, 16] | Plant response rating, Morningglory [2, 17] | Morningglory plant response rating [2, 18] | Plant response rating, Morningglory [2, 19] | Plant response rating, Sedge, Umbrella [3, 13] | Plant response rating, Sedge, Umbrella [3, 14] | Plant response rating, Sedge, Umbrella [3, 15] | Plant response rating, Sedge, Umbrella ([3]; 250 g ai/ha, scale 0 to 100) | Plant response rating, Foxtail, Giant [4, 16] | Plant response rating, Wheat [5, 16] | Plant response rating, Wheat [5, 17] | Wheat plant response rating [5, 18] | Plant response rating, Wheat [5, 19] | Plant response rating, Velvetleaf [6, 16] | Plant response rating, Velvetleaf [6, 17] | Velvetleaf plant response rating [6, 18] | Plant response rating, Velvetleaf [6, 19] | Plant response rating, Ducksalad [7, 13] | Plant response rating, Ducksalad [7, 14] | Plant response rating, Ducksalad [7, 15] | Plant response rating, Ducksalad ([7]; 250 g ai/ha, scale 0 to 100) | Plant response rating, Corn [8, 16] | Plant response rating, Corn [8, 17] | Corn plant response rating [8, 18] | Plant response rating, Corn [8, 19] | Plant response rating, Barnyardgrass [9, 13] | Plant response rating, Barnyardgrass [9, 14] | Plant response rating, Barnyardgrass [9, 15] | Plant response rating, Barnyardgrass ([9]; 250 g ai/ha, scale 0 to 100) | Plant response rating, Barnyardgrass [10, 16] | Barnyardgrass plant response rating [10, 18] | Plant response rating, Pigweed [12, 16] | Plant response rating, Pigweed [12, 17] | Pigweed plant response rating [12, 18] | Plant response rating, Pigweed [12, 19]
40: Plant response rating, Barnyardgrass [10, 17] | Plant response rating, Barnyardgrass [10, 20]
60: Foxtail, Giant plant response rating [4, 18] | Plant response rating, Crabgrass, Large [11, 17]
30: Plant response rating, Foxtail, Giant [4, 17]
20: Plant response rating, Crabgrass, Large [11, 16]
90: Plant response rating, Foxtail, Giant [4, 19] | Crabgrass, Large plant response rating [11, 18] | Plant response rating, Crabgrass, Large [11, 19]

O=C1NCC(c2ccc(Cl)c(Cl)c2)C1C(=O)Nc1cccc(F)c1 (racemic) [Compound 27]
30: Plant response rating, Ducksalad ([7]; 250 g ai/ha, scale 0 to 100)
70: Plant response rating, Barnyardgrass [10, 21] | Plant response rating, Barnyardgrass [10, 22] | Plant response rating, Crabgrass, Large [11, 21]
90: Plant response rating, Foxtail, Giant [4, 22] | Plant response rating, Crabgrass, Large [11, 22]
0: Plant response rating, Rice [1, 14] | Plant response rating, Rice ([1]; 250 g ai/ha, scale 0 to 100) | Plant response rating, Morningglory [2, 21] | Plant response rating, Morningglory [2, 22] | Plant response rating, Sedge, Umbrella [3, 14] | Plant response rating, Sedge, Umbrella ([3]; 250 g ai/ha, scale 0 to 100) | Plant response rating, Wheat [5, 21] | Plant response rating, Wheat [5, 22] | Plant response rating, Velvetleaf [6, 21] | Plant response rating, Velvetleaf [6, 22] | Plant response rating, Ducksalad [7, 14] | Plant response rating, Corn [8, 21] | Plant response rating, Corn [8, 22] | Plant response rating, Barnyardgrass [9, 14] | Plant response rating, Barnyardgrass ([9]; 250 g ai/ha, scale 0 to 100) | Plant response rating, Pigweed [12, 21] | Plant response rating, Pigweed [12, 22]
60: Plant response rating, Foxtail, Giant [4, 21]

O=C1NCC(c2ccc(Cl)c(Cl)c2)C1C(=O)Nc1ccccc1C(F)(F)F (racemic) [Compound 26]
60: Plant response rating, Crabgrass, Large [11, 21]
80: Plant response rating, Ducksalad ([7]; 250 g ai/ha, scale 0 to 100)
0: Plant response rating, Rice [1, 14] | Plant response rating, Rice ([1]; 250 g ai/ha, scale 0 to 100) | Plant response rating, Morningglory [2, 21] | Plant response rating, Morningglory [2, 22] | Plant response rating, Sedge, Umbrella [3, 14] | Plant response rating, Sedge, Umbrella ([3]; 250 g ai/ha, scale 0 to 100) | Plant response rating, Wheat [5, 21] | Plant response rating, Wheat [5, 22] | Plant response rating, Velvetleaf [6, 21] | Plant response rating, Velvetleaf [6, 22] | Plant response rating, Ducksalad [7, 14] | Plant response rating, Corn [8, 21] | Plant response rating, Corn [8, 22] | Plant response rating, Barnyardgrass [9, 14] | Plant response rating, Barnyardgrass ([9]; 250 g ai/ha, scale 0 to 100) | Plant response rating, Pigweed [12, 21] | Plant response rating, Pigweed [12, 22]
90: Plant response rating, Foxtail, Giant [4, 22] | Plant response rating, Crabgrass, Large [11, 22]
70: Plant response rating, Foxtail, Giant [4, 21] | Plant response rating, Barnyardgrass [10, 21] | Plant response rating, Barnyardgrass [10, 22]
